Data set [1] can be described thus: parenteral administration to a patient, tolerance. In kind it is in vivo. As to the method:
5 g gavibamycin A3 are dissolved in 1 l water for injection purposes, if necessary using a pharmaceutically well tolerated solubility enhancer, at room temperature, and subsequently adjusted to isotonic conditions for injection purposes by adding water-free glucose.
In an average patient, with a body weight of approximately 65 kg, 0.5 mL of this solution is administered, in other words 2.5 mg or approximately […].

Data set [2] relates to Staphylococcus aureus ATCC29213. Briefly: broth microdilution antimicrobial spectrum (NCCLS). In kind it is cell-based. As to the method: (§1) The antimicrobial spectrum of gavibamycin A3 was determined and compared with that of avilamycin A. In this context, the “broth microdilution” method in accordance with the regulations of the national committee for clinical laboratory standards (NCCLS) was used.
(In general: In broth dilution the organism is exposed to a series of concentrations in liquid medium.)

Data set [3] relates to Streptococcus pneumoniae ATCC49619. The data set is described as follows: broth microdilution antimicrobial spectrum (NCCLS). The format is cell-based. The procedure:
as §1

In data set [4] the test system is Enterococcus faecalis ATCC29212. Briefly: broth microdilution antimicrobial spectrum (NCCLS). In kind it is cell-based. The procedure:
as §1

The subject of a further data set is Bacillus subtilis. Briefly: broth microdilution antimicrobial spectrum (NCCLS). The format is cell-based. The procedure: as §1
Data set [5] has as its system Staphylococcus aureus ATCC6538. Briefly: broth microdilution antimicrobial spectrum (NCCLS). The format is cell-based. The procedure: as §1
The test system of data set [6] is Enterococcus faecalis H-7-6. The data set is described as follows: broth microdilution antimicrobial spectrum (NCCLS). In kind it is cell-based. As to the method: as §1
The subject of data set [7] is Staphylococcus aureus ATCC6538P. The data set is described as follows: broth microdilution antimicrobial spectrum (NCCLS). The format is cell-based. As to the method:
as §1

Data set [8] relates to Staphylococcus aureus Q48-1.2.1. The data set is described as follows: broth microdilution antimicrobial spectrum (NCCLS). The format is cell-based. As to the method: as §1
The nature of data set [9]: hydrophilia from Rf values / retention factors of TLC and HPLC analysis. In kind it is physicochemical. As to the method:
TLC analysis: Streptomyces viridochromogenes Tü57 and the mutants GW-4 and GW4-AM1 were incubated for three days. The cultures were filtered off, and the filtrate was applied to a solid-phase extraction cartridge (SepPakC18, Waters). The cartridge was eluted with a gradient between 10% and 100% methanol in water. Avilamycin derivatives eluted with the fraction that contains 60-70% methanol. After extraction with ethyl acetate and withdrawal of the solvent, the avilamycin derivatives were dissolved in methanol once again and measured by means of TLC on silica gel plates (silica gel 60 F254, Merck), with methylene chloride/methanol (9:1, v/v) as the solvent. Avilamycin derivatives had been detected after treatment with anisaldehyde/H2SO4.
An analytical HPLC-UV was carried out on a Hewlett Packard 1090 Liquid Chromatograph with a photodiode array detector and a HP-ODS-Hypersil 5 μm, 200×2 mm column. The sequence of the solutions was as follows: Solution A, 0.04M (NH4)2HPO4 pH 7.0 buffer; Solution B, 100% methanol; a non-linear gradient, with 30-62% of Solution B distributed over a period of 25 min at a flow rate of 0.2 mL/min.
(§2) Furthermore, gavibamycin A3 was tested with regard to its antibiotic effect. […] The non-chlorinated gavibamycin derivatives also have antibiotic activity.

Data set [10] deals with various Staphylococcus aureus strains. Briefly: preliminary tests / first MIC experiments. The format is cell-based. As to the method: as §1, §2
Data set [11] relates to multiresistant Staphylococcus aureus strains. The following applies: Zähner, 1999; cited from earlier work.

Read-outs that look alike come from different tables or passages of the source.

The text below walks through data of patent publication US20040006026A1, “Avilamycin derivatives” (Combinature Biopharm AG, priority 2001, published 2004).

In the case of `COCC1OC(OC2OCC3OC4(OC3C2OC(=O)C(C)C)OC(C)C(O)(C(C)O)C2OCOC24)C(OC)C(O)C1OC1OC(C)C(OC)C(OC2CC3(C)OC4(CC(O)C(OC5CC(O)C(OC(=O)c6c(C)c(Cl)c(O)c(Cl)c6O)C(C)O5)C(C)O4)OC3C(C)O2)C1O` (centres unmarked) [gavibamycin A3], the “tolerance of higher dosage” value in [1] (human, in vivo) is “toxicologically unproblematic and was well tolerated”. Further, in data set [1] (patient approx. 65 kg, 0.5 mL of 5 g/l solution, 2.5 mg, parenteral), the “tolerance of the administered dose” value is “well tolerated by the patient”. Also, the antibiotic activity entry (in [2]; in data set [3]; in data set [4]; with Bacillus subtilis; in data set [5]; in data set [6]) was “demonstrate antibiotic activity” each time. Also, the antibiotic activity result in data set [7] and in data set [8] was “demonstrate antibiotic activity” in each case. Further, the “hydrophilia compared with avilamycin A” value in data set [9] is reported as “somewhat more hydrophilic than avilamycin A”; in [9] (listed as gavibamycin), “much more hydrophilic”. In addition, the “activity against various Staphylococcus aureus strains compared with avilamycin A” value in data set [10] is recorded as “somewhat stronger activity”; in data set [10] (listed as gavibamycin) it was “somewhat more active than avilamycin A”.
Take `COC[C@H]1O[C@@H](OC2OC[C@@H]3O[C@]4(O[C@H]3[C@H]2OC(=O)C(C)C)O[C@H](C)[C@@](O)(C(C)=O)[C@@H]2OCO[C@H]24)[C@@H](OC)[C@@H](O)[C@@H]1O[C@@H]1O[C@H](C)[C@H](OC)[C@H](O[C@H]2C[C@@]3(C)OC4(C[C@@H](O)[C@H](O[C@H]5C[C@@H](O)[C@H](OC(=O)c6c(C)c(Cl)c(O)c(Cl)c6OC)[C@@H](C)O5)[C@@H](C)O4)O[C@@H]3[C@@H](C)O2)[C@H]1O` (some centres unmarked) [avilamycin A, reference compound]: in [11], the “activity against multiresistant Staphylococcus aureus strains” value is “excellent activity”. Besides, the antibiotic activity entry (in data set [2]; in [3]; in data set [4]; with Bacillus subtilis; in [5]; in [6]) was “demonstrate antibiotic activity” throughout. Moreover, the antibiotic activity entry in data set [7] and in [8] was “demonstrate antibiotic activity” throughout.
